The values that follow come from US20230165836A1, “ALPHA-2 ADRENERGIC RECEPTOR AGONISTS FOR THE TREATMENT OF CANCER” (UNIVERSITÉ CATHOLIQUE DE LOUVAIN, priority 2020, published 2023).

“Also recorded” adds a separate entry of the source. Read-outs that look alike come from different tables or passages of the source.

One experiment relates to CT26 colon carcinomas. Description: CT26 colon carcinoma model, daily i.p. treatment, tumor volume. It counts as in vivo, BALB/c mice. Conditions: CT26 in BALB/c mice; 5 mg/kg, i.p. daily from tumor size around 50 mm^3 until sacrifice. As to the method:
Mice received a daily intra-peritoneal injection of guanabenz (5 mg/kg) or vehicle (PBS) from the day of randomization (and the day of ACT when applicable) until the day of sacrifice. For the co-administration of adrenergic receptor agonist and antagonist, BALB/c mice bearing CT26 colon carcinomas received daily injections of vehicle control, guanabenz (5 mg/kg, i.p.), or guanabenz (5 mg/kg, i.p.) plus yohimbine (10 mg/kg, i.p.), when the tumor size was around 50 mm^3, until the day of sacrifice.
[…] mice were injected subcutaneously with 2×10^6 CT26 colon tumor cells at an age of 6 to 8 weeks. […] For evaluation of yohimbine on the effect of clonidine and guanabenz, the mice were randomized into different groups when tumors size arrived around 100 mm^3 and received daily injections of guanabenz (5 mg/kg, i.p.), yohimbine (10 mg/kg), a mix of guanabenz (5 mg/kg, i.p.) and yohimbine (10 mg/kg, i.p.), clonidine (5 mg/kg, i.p.), a mix of clonidine (5 mg/kg, i.p.) and yohimbine (10 mg/kg, i.p.) or vehicle control. Tumor size was measured every 2 days and mice were sacrificed when the tumor in control group reached 1,000 mm^3.

The next experiment relates to CT26 colon cancer. The experiment in a line: CT26 colon cancer tumor growth (FIGS. 15-16). The format is in vivo, C57BL/6J mice. Conditions: CT26 colon cancer, FIGS. 15A, 16A. An excerpt:
Tumor infiltration of CD8+cells evaluated at the day of sacrifice by FACS (FIG. 15B). Tumor growth of CT26 colon cancer in NSG mice treated with PBS (Control), clonidine, clonidine mixed with yohimbine, or yohimbine alone (FIG. 15C). FIGS. 16A-C is a set of curves and histograms showing the tumor growth of CT26 colon cancer in C57BL/6J mice treated with PBS (Control, circles), guanabenz (diamonds), guanabenz mixed with yohimbine (light grey inverted triangles), or yohimbine alone (dark grey inverted triangles) (FIG. 16A); the tumor infiltration of CD8+ cells evaluated at the day of sacrifice by FACS (FIG. 16B); and the tumor growth of CT26 colon cancer in NSG mice treated with PBS (Control), guanabenz, guanabenz mixed with yohimbine, or yohimbine alone (FIG. 16C). […] For evaluation of yohimbine on the effect of clonidine and guanabenz, the mice were randomized into different groups when tumors size arrived around 100 mm^3 and received daily injections of guanabenz (5 mg/kg, i.p.), yohimbine (10 mg/kg), a mix of guanabenz (5 mg/kg, i.p.) and yohimbine (10 mg/kg, i.p.), clonidine (5 mg/kg, i.p.), a mix of clonidine (5 mg/kg, i.p.) and yohimbine (10 mg/kg, i.p.) or vehicle control.

The next experiment deals with JAK2V617F allele burden. The experiment in a line: Myelofibrosis by JAK2V617F bone marrow transplantation, allele burden. Particulars: 5 mg/kg i.p. daily; Day 7 versus Day 0. It counts as in vivo, C57BL/6 mice. As to the method: Bone marrow from primary CD45.2 JAK2V617F mice was mixed 1:1 with CD45.1 C57BL/6 marrow and transplanted into lethally irradiated CD45.2 C57BL/6 recipients. 1 month after bone marrow transplantation, mice were randomized into three groups and received daily i.p injection of 5 mg/kg of clonidine, guanabenz or PBS. Blood was taken on Day 0 (Just before the treatment) and on Day 7 (7 days after the treatment). The allele burden was assessed as a fraction of CD45.2 cells along total CD45 cells in the blood of mice.
Decreased JAK2V617F allele burden is a golden standard method to evaluate the disease progression of MF.

In experiment [1] the test system is myelofibrosis induced by romiplostim. Particulars: romiplostim 1 mg/kg s.c. days 1, 8, 15, 5 mg/kg i.p. daily for two weeks from day 8, wildtype mice. As to the method: 8-week female C57BL/6 J wild-type and Adra2a KO mice were administered saline or 1 mg/kg of romiplostim by a subcutaneous injection into the neck skin on days 1, 8 and 15. Clonidine or guanabenz were administrated i.p. at a dose of 5 mg/kg daily for two weeks starting from day 8. Mice were dissected on day 22 and peripheral blood was drawn by cardiac puncture, the platelet concentration was measured by Cell Counter Analyzer MS9-5V.

The next experiment relates to T cell lymphoma. Description: Tumor model: T cell lymphoma. It counts as in vivo, mice. Particulars: T cell lymphoma (FIG. 22C, 23C). From the text: (§1) FIGS. 23A-H is a set of curves showing the tumor growth of mice treated with PBS (Control, circles) or guanabenz (GBZ, triangles) in different tumor models: such as mammary gland tumor (FIG. 23A), hepatocellular carcinoma (FIG. 23B), T cell lymphoma (FIG. 23C), lung cancer (FIG. 23D), myeloma (FIG. 23E), mammary adenocarcinoma (FIG. 23F), renal cancer (FIG. 23G) and fibrosarcoma (FIG. 23H).

A further experiment deals with mammary adenocarcinoma. Description: Tumor model: mammary adenocarcinoma. It counts as in vivo, mice. Particulars: mammary adenocarcinoma (FIG. 22F, 23F).
Excerpt: as §1

In the next experiment the test system is fibrosarcoma. The experiment in a line: Tumor model: fibrosarcoma. It counts as in vivo, mice. Conditions: fibrosarcoma (FIG. 22H, 23H).
Excerpt: as §1

Take `Clc1cccc(Cl)c1N=C1NCCN1` [clonidine]: in the experiment with CT26 colon carcinomas, the “tumor growth (tumor volume)” value was “promotes a decrease of the tumor volume; also recorded: strongly inhibited CT26 tumor growth”. Besides, the tumor growth result in the experiment with CT26 colon cancer was “inhibited CT26 colon cancer tumor growth”; in the experiment on T cell lymphoma it was “strong tumor inhibition”; in the experiment on mammary adenocarcinoma it was “strong tumor inhibition”; in the experiment with fibrosarcoma it was “strong tumor inhibition”. Further, in the experiment with JAK2V617F allele burden, the “JAK2V617F allele burden (CD45.2 cells among total CD45 cells in blood)” value was “decrease of JAK2V617F allele burden in a number of mice”. The “platelet (PLT) counts” value is “significantly reduces the platelet (PLT) counts” in experiment [1] and “reduces the platelet count” in experiment [1] (listed as Clonidine).
